Like-named read-outs stand apart in the source and are kept apart here. Blank lines part the entries; values can stand above or below the molecule they belong to.
Legend:
Aβ(1-40) = biological target: T1, Aβ(1-40) (Homo sapiens, UniProt P05067); conditions: * = compound only partially soluble at this concentration, cited from earlier work
T1 construct: Aβ(1-40)

[1] = Octanol-water partition coefficient; format: physicochemical; conditions: pH 7.4
From the text: Those skilled in the art will recognize that the hydrophobicity and hydrophilicity of a substance can be measured using the octanol-water partition coefficient (“Poct” or “Kow”), for compounds whose solubility is not altered by the pH and ionic characteristic of the solute, or LogD value, for compounds whose solubility is altered by the pH and ionic characteristic of the solute. LogD is the logarithm of the distribution coefficient, which is the ratio of the sum of the concentrations of all species of a compound in octanol to the sum of the concentrations of all species of the compound in water.
In these contexts, hydrophobicity is related to factors such as absorption, bioavailabity, hydrophobic drug-receptor interactions, metabolism, and/or toxicity. As used herein, the logPoct is synonymous to logKow, and both measurements are used interchangeably herein. Likewise, logPoct is a functionally equivalent measure to LogD; both values reflect the degree of solubility of a given compound.

[2] = pH 7.4; cited from earlier work
[3] = cited from earlier work
[4] = Particle size after the grinding process; format: physicochemical; conditions: micronized by the grinding process
Method: For example, Polysorbate 80 is weighed into a polypropylene bottle, and an initial amount of sterile water for injection, USP, is weighed into the bottle. Next, Methoxy-X04 is weighed and added to the bottle. The current batch weight is determined, and the final amount of sterile water for injection to adjust the formulation to a final batch weight is added. Then, the YTZ grinding media is added to the bottle, and the bottle is placed on a roller mill for a minimum of 12 hours at a setting of 50%.
After the milling process, a polishing filter and Masterflex tubing are connected to the bottom of a Millipore housing assembly, while a high-pressure hose is attached to the top of the Millipore housing. Using a nitrogen pressure gauge, the solution is pushed thorough the housing and the polish filter. For example, the pressure used is between 3 psi and 5 psi. This grinding process yields micronized Methoxy-X04 having a mean particle size of 1.157 μm with 100% of particles smaller than 10 μm and greater than 75% of particles smaller than 5 μm. Thus, those skilled in the art will recognize that this exemplary milling process produces Methoxy-X04 particles that are suitable for either topical or parenteral formulation, without requiring the use of solvents, such as dimethyl sulfoxide, that are incompatible with use in drug formulations.

[5] = injected into the tail; ex vivo 2-photon fluorescent microscopy; cited from earlier work
Aβ plaques = conditions: in vivo animal models and ex vivo human tissue (CR: Aβ aggregations); cited from earlier work
[6] = Solubility in water and in ophthalmic carriers; format: physicochemical
From the text: Specifically, a mixture of approximately 85% petrolatum and 15% mineral oil is a suitable carrier. […] The petrolatum in this ophthalmic formulation can act as a carrier for a combination of dissolved and suspended Methoxy-X04, by altering the aqueous portions of the eye to accept the compound more readily by adding lipophilic material to the solution of the eye's environment and by altering the interactions of the eye with the compound by shielding it from the aqueous environment.
Hydroxypropyl methylcellulose can act in part as a carrier of microparticles in suspension for a mixture of dissolved and suspended Methoxy-X04. This effect occurs by altering the aqueous portions of the eye to enable them to accept the hydrophobic compounds more readily, by adding lipophilic material to the eye's environment and/or by altering the interactions of the compound with the eye by shielding the hydrophobic compound from the aqueous environment.
X34 (Formula II) is a ligand molecule that is derived from Congo Red by replacing the naphthalene sulfonic acids with salicylic acids and the azo linkage with an ethenyl link. […] At room temperature, X34 is a yellow powder, which fluoresces upon exposure to UV light. The logPoct for X34 is 0.42. […] Preferably, ophthalmic formulations containing X34 (or other hydrophilic compounds of Formula I) have LogD values of between 1 and 3.

[7] = given as Inact, tested at 10 μm

T1 sequence (P05067 672-711 limits assumed): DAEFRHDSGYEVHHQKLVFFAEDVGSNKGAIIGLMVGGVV

SMILES: Oc1ccc(/C=C/c2ccc(/C=C/c3ccc(O)cc3)cc2)cc1 [X:E:B04]
- Ki (Aβ(1-40); [3H]CG binding to Aβ(1-40)): 3100 nM

SMILES: COC(=O)c1cccc(/C=C/c2ccc(/C=C/c3cccc(C(=O)OC)c3)cc2)c1 [X:E:B30 dimethylester]
- Ki (Aβ(1-40); [7]): > 10000 nM

SMILES: COc1ccc(/C=C/c2ccc(/C=C/c3ccc(OC)c(C(=O)O)c3)cc2)cc1C(=O)O [X:E:B34 bis(4-methoxy)]
- Ki (Aβ(1-40); [3H]CG binding to Aβ(1-40)): 47 nM

- Poct of CG relative to CR [1]: ~100 fold
SMILES: O=C(O)c1cc(/N=N/c2ccc(-c3ccc(/N=N/c4ccc(O)c(C(=O)O)c4)cc3)cc2)ccc1O [CG, Chrysamine G]
- logPoct [2]: 1.8
- octanol-water partition coefficient (Poct) [2]: 60

SMILES: COc1cc(/C=C/c2ccc(O)cc2)ccc1/C=C/c1ccc(O)cc1 [2-CH3O-X:E:B04]
- Oral rat LD50 [3]: ~15 g/kg
- mean particle size [4]: 1.157 μm
- particles smaller than 5 μm [4]: greater than 75%
- particles smaller than 10 μm [4]: 100%
- detection in the lens [5]: could be detected in the supranuclear region of the lens
- Ki (Aβ(1-40); [3H]CG binding to Aβ(1-40)): 27 nM
- binding to Aβ plaques / aggregations (Aβ plaques): selectively binds to Aβ plaques
- solubility in water [6]: insoluble
- state in carrier at 10 mg/gm ([6]; 10 mg/gm of carrier, petrolatum and mineral oil): remains primarily in suspension
- state in carrier at 0.1% ([6]; 0.1% (1 mg per gm carrier), aqueous formulation with hydroxypropyl methylcellulose): remains in solution
- state in carrier at 0.1% ([6]; 0.1% (1 mg per gm of carrier), about 85% petrolatum and 15% mineral oil): remains in solution

SMILES: COc1ccc(/C=C/c2ccc(/C=C/c3ccc(OC)cc3)c(O)c2)cc1 [2′-HO-X:E:B04bis(4-methoxy)]
- Ki (Aβ(1-40); [7]): > 10000 nM

SMILES: Oc1ccc(/C=C/c2ccc(/C=C/c3ccc(O)cc3)c(O)c2)cc1 [2′-HO-X:E:B04]
- Ki (Aβ(1-40); [3H]CG binding to Aβ(1-40)): 9 nM

SMILES: COc1ccc(/C=C/c2ccc(/C=C/c3ccc(OC)cc3)c(OC)c2)cc1 [2′-CH3O-X:E:B04 bis(4-methoxy)]
- Ki (Aβ(1-40); [7]): > 10000 nM

SMILES: COc1ccc(/C=C/c2ccc(/C=C/c3ccc(OC)cc3)cc2)cc1 [X:E:B04 bis(4-methoxy)]
- Ki (Aβ(1-40); [7]): > 10000 nM

SMILES: COC(=O)c1cc(/C=C/c2ccc(/C=C/c3ccc(O)c(C(=O)OC)c3)cc2)ccc1O [X:E:B34 dimethylester]
- Ki (Aβ(1-40); [3H]CG binding to Aβ(1-40)): 119 nM

SMILES: O=C(O)c1cccc(/C=C/c2ccc(/C=C/c3cccc(C(=O)O)c3)cc2)c1 [X:E:B30]
- Ki (Aβ(1-40); [3H]CG binding to Aβ(1-40)): 135 nM

SMILES: O=C(O)c1cc(/C=C/c2ccc(/C=C/c3ccc(O)c(C(=O)O)c3)cc2)ccc1O [X:E:B34 (X-34)]
- Oral rat LD50 [3]: ~15 g/kg
- Ki (Aβ(1-40); [3H]CG binding to Aβ(1-40)): 18 nM
- binding to Aβ plaques / aggregations (Aβ plaques): selectively binds to β-amyloid plaques
- solubility in water [6]: moderately soluble
- state in carrier at 0.1% ([6]; 0.1% of X34 (1 mg active per gm of carrier)): appears to remain in solution

SMILES: Nc1c(/N=N/c2ccc(-c3ccc(/N=N/c4cc(S(=O)(=O)O)c5ccccc5c4N)cc3)cc2)cc(S(=O)(=O)O)c2ccccc12 [CR, Congo Red]
- logPoct [2]: 0.18
- octanol-water partition coefficient (Poct) [2]: 0.7
- binding to Aβ plaques / aggregations (Aβ plaques): selectively binds to Aβ aggregations with high affinity

SMILES: COC(=O)c1cc(/C=C/c2ccc(/C=C/c3ccc(OC)c(C(=O)OC)c3)cc2)ccc1OC [X:E:B34 bis(4-methoxy) dimethyl ester]
- Ki (Aβ(1-40); [7]): > 10000 nM
